Source: ChEMBL document CHEMBL6071173, “Machine Learning Accelerates Screening of Osteoclast Differentiation Inhibitors from Natural Products” (2024)
Activity calls are given as the source filed them. The calls are words filed in the database; no cut-off is given here.

What was measured:
[1] = Inhibition of RANKL-induced osteoclastogenesis in mouse RAW 264 cells at 20 uM […] by TRAP staining based assay relative to control; format: functional; conditions: RAW264.7
RAW 264 [2] = assay: Cytotoxicity against mouse RAW 264 cells assessed as reduction in cell viability at upto 160 uM by MTT assay; format: functional, cell-based
RAW 264 [3] = assay: Inhibition of RANKL-induced osteoclastogenesis in mouse RAW 264 cells at 1 nM […] by TRAP staining based assay; format: functional, cell-based

| Structure (SMILES) | inhibition at 20 µM [1] [%] | Activity (RAW 264 [2]) | inhibition (RAW 264 [3]) |
| --- | --- | --- | --- |
| C/C=C/C=C/C(=O)O[C@H]1CC/C=C/[C@H](O)[C@H](O)[C@@H](CCC)OC1=O [PINOLIDOXIN] | 57 | inactive |  |
| CC1=C(/C=C/C(C)=C/C=C/C(C)=C/C(=O)O)C(C)(C)CCC1 |  |  | Active |
